Legend:
[1] = ITC: ligand exchange of Cu(II) between 2HQ and chelates (Examples III, Table 2)
Experimental: Isothermal titration calorimetry (ITC) measurements were used to obtain the equilibrium constant (K, also referred to as the exchange constant) of the ligand exchange between the ionophore and the agent-entrapping compound, here a chelator. […] The ligand exchange was monitored by the heat of reaction from each injection in the ITC experiment as determined by peak integration. The ligand exchange constant (K) was determined by fitting the heat of reaction. The binding isotherm is defined by the equilibrium: Cu(2HQ)2+chelate ? Cu(chelate)+2(2HQ) (1)
The ITC measurements were carried out at 25° C. and 50° C. using isothermal titration calorimetry (iTC200, Micro-Cal, GE). The instrument was electrically calibrated by means of a standard electric pulse as recommended by the manufacturer. A 40 μL syringe was used for the titration, mixing was effected by stirring the syringe at 1000 rpm during equilibration and experiments. Typically, 20 injections of 2 μL each were performed with a 150 s interval between injections in a single titration. The reference cell of the calorimeter filled with water acts as a thermal reference to the sample cell. […] All solutions were degassed before titrations to reduce noise.
The ligand exchange constant (K) and the ligand exchange enthalpy (ΔH) are determined by as fitting parameters using a binding isotherm based on reaction scheme (1).

[2] = In vivo PET/CT biodistribution and blood concentration-time profile; set-up: species or system NMRI nude mice; settings: i.v., mice, PET ROI on left ventricle
Experimental: Human colon adenocarcinoma (HT29) tumor cells (2×10^6 cells) were inoculated in the left and right flank of female NMRI (Naval Medical Research Institute) nude mice and allowed to grow 4 weeks in the mice to establish the malignant solid tumor. ^64Cu-liposomes for in vivo studies were prepared as described above and consisted of DSPC/CHOL/DSPE-PEG-2000 in the molar ratio 55:40:5 and contained the chelating agent (DOTA) in a concentration of 10 mM, and at a pH of 4.0 in the interior of the liposomes. […]
After i.v. administration of ^64Cu-liposome or ^64Cu-DOTA the animals were subject to micro-PET/CT imaging at different time points: 1, 4, 12 and 24 h. With PET imaging the amount of radioactivity specifically sequestered in a region of interest (ROI) on an image can be calculated allowing direct quantitative determinations based on differences in signal intensity. After PET- and CT images were reconstructed the images were fused with Inveon Software (Siemens), and PET data were analyzed by defining ROIs on selected tissues. PET values are expressed as mean Becquerel ml^−1 (Bq ml^−1), and ROIs were drawn manually over each organ of interest. […]
FIG. 11 is a time-activity curve (TAC) illustrating the blood concentration-time pro-file of ^64Cu-liposome and ^64Cu-DOTA. […] The total injected activity dose was measured by drawing one ROI around the animal 4 min post-injection. […]

[3] = ITC: extraction of Cu(II) from 2-hydroxyquinoline by DOTA (Examples I); assay type: binding; settings: Milli-Q water pH 7.4, 25° C.
Experimental: Isothermal titration calorimetry (ITC) measurements are designed to obtain primarily the enthalpy of each complex formation and their stoichiometries. The heats of each reaction are determined by integration of the peaks observed. After the contribution from the heat of dilution of each injection is subtracted, the heat is plotted against the molar ratio of the measured components. The binding constant (Ka, interchangeably referred to as the ligand exchange constant, K), enthalpy of binding) (ΔH^0), and stoichiometry (n) of the formation of complex are determined by fitting the binding isotherm against the binding equation using an independent binding model.
The exchange of 2-hydroxyquinoline with DOTA are shown as heat spike plots (A) and integrated heat plots (B). Experimental conditions: 0.5 mM Cu(2-hydroxyquinoine)2 is titrated with 10-μL injections of 5 mM DOTA. All solutions were prepared in Milli-Q water at pH=7.4.

[4] = ITC: ligand exchange of 2HQ with DOTA complexed to Cu(II) (Examples II); assay type: binding

| SMILES | Ligand exchange constant (K), exchange of Cu(II) from 2HQ to chelate ([1]; pH 4.0 at 25° C.) | ligand exchange enthalpy (ΔH) ([1]; pH 4.0 at 25° C.) | Ligand exchange constant (K), exchange of Cu(II) from 2HQ to chelate ([1]; pH 5.9 at 25° C.) | ligand exchange enthalpy (ΔH) ([1]; pH 5.9 at 25° C.) | Ligand exchange constant (K), exchange of Cu(II) from 2HQ to chelate ([1]; pH 5.9 at 50° C.) | ligand exchange enthalpy (ΔH) ([1]; pH 5.9 at 50° C.) | Ligand exchange constant (K), exchange of Cu(II) from 2HQ to chelate ([1]; pH 4.0 at 50° C.) | ligand exchange enthalpy (ΔH) ([1]; pH 4.0 at 50° C.) | blood clearance [2] | binding affinity to Cu(II) compared with 2-hydroxyquinoline [3] | exchange constant, K (Cu(2HQ)2 + DOTA) ([4]; acetate buffer at pH 4.0, 25° C.) | exchange constant, K (Cu(2HQ)2 + DOTA) ([4]; pH 5.9 in MES buffer, 25° C.) |
| --- | --- | --- | --- | --- | --- | --- | --- | --- | --- | --- | --- | --- |
| O=C(O)CN1CCCN(CC(=O)O)CCN(CC(=O)O)CCCN(CC(=O)O)CC1 [TETA, 1,4,8,11-tetraazacyclotetradecane-1,4,8,11-tetraacetic acid] | 1.2 × 10^−4 | 0.5 kcal/mol | 3.0 × 10^−3 | -4.9 kcal/mol | 2.8 × 10^−2 | -4.7 kcal/mol |  |  |  |  |  |  |
| C1CNCCNCCNCCN1 [Cyclen, 1,4,7,10-tetraazacyclododecane] |  |  | ^ | ^ | 1.4 × 10^−3 | -5.5 kcal/mol |  |  |  |  |  |  |
| O=P(O)(O)CN1CCN(CP(=O)(O)O)CCN(CP(=O)(O)O)CCN(CP(=O)(O)O)CC1 [DOTP, 1,4,7,10-tetraazacyclododecane-1,4,7,10-tetra(methanephosphonic acid)] | 2.5 × 10^−3 | 2.4 kcal/mol |  |  |  |  | 2.9 × 10^−3 | 3.4 kcal/mol |  |  |  |  |
| O=C([O-])CN1CCN(CC(=O)[O-])CCN(CC(=O)O)CCN(CC(=O)O)CC1.[64Cu+2] [^64Cu-DOTA] |  |  |  |  |  |  |  |  | cleared rapidly after administration through renal filtration |  |  |  |
| O=C(O)CN1CCN(CC(=O)O)CCN(CC(=O)O)CCN(CC(=O)O)CC1 [DOTA, 1,4,7,10-tetraazacyclododecane-1,4,7,10-tetraacetic acid] | 1.3 × 10^−2 | 3.8 kcal/mol | 6.1 × 10^−4 | -8.0 kcal/mol | 1.0 × 10^−3 | -6.3 kcal/mol | 8.7 × 10^−3 | 4.0 kcal/mol |  | much higher binding affinity to Cu(II) than 2-hydroxyquinoline | (1.0±0.3)·10^−2 | (5.2±1.6)·10^−4 |

Reference: patent US8920775B2, “Loading technique for preparing radionuclide containing nanoparticles” (Technical University of Denmark, priority 2009, dated 2014)
